Measurements taken from patent US10730856B2, “Benzimidazole derivatives as EP4 ligands” (BAYER PHARMA AKTIENGESELLSCHAFT, priority 2013, dated 2020).
Read-outs that look alike come from different tables or passages of the source.

Target: human EP4 receptor (Homo sapiens (Human), UniProt P35408)
Assay: hEP4 antagonism test (cAMP HTRF, PGE2-stimulated hEP4-expressing cells)
Format: cell-based
Excerpt: The antagonistic action can be determined by an antagonism assay (see Example 3.2.1 of the biological examples).
3. Detection of the Antagonism of the Human Prostaglandin E2 (Subtype ER4) Receptor Signal
Detection of the Antagonization of the hEP4 Signal
Binding of the agonist prostaglandin E2 (PGE2) to the EP4 subtype of the human hPGE2-R (hEP4-R) induces activation of membrane-bound adenylate cyclases and thus the formation of cAMP. In the presence of the phosphodiesterase inhibitor IBMX, this cAMP accumulates intracellularly and is, after cell lysis, employed in a competitive detection method. In this method, it competes with a fluorescently labelled cAMP (cAMP-d2) for binding to an anti-cAMP antibody labelled with an Eu cryptate. In the absence of cellular cAMP, a complex between the Eu-cryptate-labelled anti-cAMP antibody and the cAMP-d2 molecule is formed which, after excitation at 337 nm, allows a FRET-based (FRET=fluorescence resonance energy transfer) enery transfer to the cAMP-d2 tracer and results in a long-lasting fluorescence signal (emission at 665 and 620 nm). This signal is time-resolved, i.e. measured in a suitable measuring device once the background fluorescence has subsided (time resolved; TR-FRET). Additionally, well-ratio determination (emission 665 nm/emission 620 nm*10 000) allows variations in the individual measurements in the added amounts of detection reagents to be normalized.
Administration of prostglandin E2 and increase of intracellular cAMP reduces the FRET signal which increases again if the substance is antagonistically active.
3.2.1 Test for Antagonism (Figures Per Well of a 384-Well Plate):
4 μl of a suspension of hEP4-expressing cells (2500 cells/well) already comprising the cAMP-D2 tracer are added to the substance solutions (50 nl; 100% DMSO) initially charged in a test plate. After 20 minutes of pre-incubation at room temperature, 2 μl of a 3×PGE2 solution are added and the mixture is incubated in the presence of an EC80 concentration of the agonist (0.4 nM) for a further 60 min at room temperature (volume: ˜6 μl), and the whole reaction is then stopped by addition of 2 μl of lysis buffer (volume: ˜8 μl). After a further 20 min at room temperature, the cell lysate is measured in accordance with the instructions of the manufacturer in a measuring instrument suitable for TR-FRET (compare cAMP HTRF assay kit: Cisbio International 62AM6PEJ high range)

[1] = hEP4-expressing cells, PGE2 at EC80 (0.4 nM), cAMP TR-FRET, read-out: hEP4 antagonization IC50

Chain of human EP4 receptor (P35408 whole entry): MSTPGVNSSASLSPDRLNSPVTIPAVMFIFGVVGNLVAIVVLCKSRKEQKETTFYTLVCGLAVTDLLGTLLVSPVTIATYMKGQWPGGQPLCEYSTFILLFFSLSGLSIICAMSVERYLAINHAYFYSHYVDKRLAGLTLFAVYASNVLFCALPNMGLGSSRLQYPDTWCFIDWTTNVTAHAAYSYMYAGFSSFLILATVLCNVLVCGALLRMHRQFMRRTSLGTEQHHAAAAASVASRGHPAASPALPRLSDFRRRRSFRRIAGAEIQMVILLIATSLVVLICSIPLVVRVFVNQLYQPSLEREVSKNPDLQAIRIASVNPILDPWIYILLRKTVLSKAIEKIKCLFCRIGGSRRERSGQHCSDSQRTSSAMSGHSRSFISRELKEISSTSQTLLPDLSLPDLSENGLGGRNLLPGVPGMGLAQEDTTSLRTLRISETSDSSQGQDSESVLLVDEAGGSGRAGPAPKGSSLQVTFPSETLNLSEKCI

Row | Compound | IC50 [1] | IC50 (PGE2-induced stimulation of cAMP production, cells expressing the EP4 receptor, read-out: inhibition of PGE2-induced cAMP production in cells expressing the EP4 receptor, IC50)
1 | CCn1c2ccc(-c3nc4c(C)c(C(=O)O)ccc4n3CCOC)cc2c2cc(C)cc(Cl)c21 [Example 12, 2-(8-Chloro-9-ethyl-6-methyl-9H-carbazol-3-yl)-1-(2-methoxyethyl)-4-methyl-1H-benzimidazole-5-carboxylic Acid] | 2.8 nM | –
2 | CCn1c2ccc(Br)cc2c2cc(-c3nc4c(C)c(C(=O)OC)ccc4n3CCOC)ccc21 [Example 1, Methyl 2-(6-bromo-9-ethyl-9H-carbazol-3-yl)-1-(2-methoxyethyl)-4-methyl-1H-benzimidazole-5-carboxylate] | 32 nM | –
3 | CCn1c2ccc(-c3nc4c(C)c(C(=O)O)ccc4n3CCOC)cc2c2cc(C)cc(F)c21 [Example 4, 2-(9-Ethyl-8-fluoro-6-methyl-9H-carbazol-3-yl)-1-(2-methoxyethyl)-4-methyl-1H-benzimidazole-5-carboxylic Acid] | 2.4 nM | –
4 | CCn1c2ccc(-c3nc4c(C)c(C(=O)OC)ccc4n3CCOC)cc2c2cc(C)cc(Cl)c21 [Example 11, Methyl 2-(8-chloro-9-ethyl-6-methyl-9H-carbazol-3-yl)-1-(2-methoxyethyl)-4-methyl-1H-benzimidazole-5-carboxylate] | 47 nM | –
5 | CCOC(=O)c1ccc2c(c1)nc(-c1ccc3c(c1)c1cc(C)cc(F)c1n3CC)n2CCOC [Example 9, Ethyl 2-(9-ethyl-8-fluoro-6-methyl-9H-carbazol-3-yl)-1-(2-methoxyethyl)-1H-benzimidazole-5-carboxylate] | 62 nM | –
6 | CCn1c2ccc(-c3nc4c(F)c(C(=O)O)ccc4n3CCOC)cc2c2cc(C)cc(F)c21 [Example 8, 2-(9-Ethyl-8-fluoro-6-methyl-9H-carbazol-3-yl)-4-fluoro-1-(2-methoxyethyl)-1H-benzimidazole-5-carboxylic Acid] | 1.9 nM | –

More lines, in order of falling IC50 [1], values ahead:

Row | IC50 [1] | IC50 (PGE2-induced stimulation of cAMP production, cells expressing the EP4 receptor, read-out: inhibition of PGE2-induced cAMP production in cells expressing the EP4 receptor, IC50) | Compound
7 | 40 nM | – | CCn1c2ccc(-c3nc4c(C)c(C(=O)OC)ccc4n3CCOC)cc2c2cc(C)cc(F)c21 [Example 3, Methyl 2-(9-ethyl-8-fluoro-6-methyl-9H-carbazol-3-yl)-1-(2-methoxyethyl)-4-methyl-1H-benzimidazole-5-carboxylate]
8 | 11 nM | – | CCn1c2ccc(Br)cc2c2cc(-c3nc4c(C)c(C(=O)O)ccc4n3CCOC)ccc21 [Example 2, 2-(6-Bromo-9-ethyl-9H-carbazol-3-yl)-1-(2-methoxyethyl)-4-methyl-1H-benzimidazole-5-carboxylic Acid]
9 | 2.4 nM | – | CCn1c2ccc(-c3nc4c(F)c(C(=O)O)ccc4n3CCOC)cc2c2cc(F)cc(C)c21 [Example 7, 2-(9-Ethyl-6-fluoro-8-methyl-9H-carbazol-3-yl)-4-fluoro-1-(2-methoxyethyl)-1H-benzimidazole-5-carboxylic Acid]
10 | 2 nM | – | CCn1c2ccc(-c3nc4c(C)c(C(=O)O)ccc4n3CCOC)cc2c2cc(F)cc(C)c21 [Example 6, 2-(9-Ethyl-6-fluoro-8-methyl-9H-carbazol-3-yl)-1-(2-methoxyethyl)-4-methyl-1H-benzimidazole-5-carboxylic Acid]
11 | 1.5 nM | ~1.5 nM | CCn1c2ccc(-c3nc4cc(C(=O)O)ccc4n3CCOC)cc2c2cc(C)cc(F)c21 [Example 10, 2-(9-Ethyl-8-fluoro-6-methyl-9H-carbazol-3-yl)-1-(2-methoxyethyl)-1H-benzimidazole-5-carboxylic Acid]
